# Target: TrkA (Homo sapiens (Human), UniProt P04629)
# Test: TrkA kinase HTRF enzyme inhibition assay
# Assay type: biochemical
# Settings: TrkA pre-incubated with 200 μM ATP
# In short: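 HTRF ratio read-out of biotin-peptide (125 nM) phosphorylation, 1 h reaction after TrkA (2-10 nM) auto-activation with ATP (200 μM) for 20 min and 10 min compound pre-incubation in 50 mM HEPES pH 7.4 with MgCl2/MnCl2. Percent inhibition from initial rates in duplicate, fitted to single-site equation for IC50.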
# TrkA, sequence (P04629 33-796): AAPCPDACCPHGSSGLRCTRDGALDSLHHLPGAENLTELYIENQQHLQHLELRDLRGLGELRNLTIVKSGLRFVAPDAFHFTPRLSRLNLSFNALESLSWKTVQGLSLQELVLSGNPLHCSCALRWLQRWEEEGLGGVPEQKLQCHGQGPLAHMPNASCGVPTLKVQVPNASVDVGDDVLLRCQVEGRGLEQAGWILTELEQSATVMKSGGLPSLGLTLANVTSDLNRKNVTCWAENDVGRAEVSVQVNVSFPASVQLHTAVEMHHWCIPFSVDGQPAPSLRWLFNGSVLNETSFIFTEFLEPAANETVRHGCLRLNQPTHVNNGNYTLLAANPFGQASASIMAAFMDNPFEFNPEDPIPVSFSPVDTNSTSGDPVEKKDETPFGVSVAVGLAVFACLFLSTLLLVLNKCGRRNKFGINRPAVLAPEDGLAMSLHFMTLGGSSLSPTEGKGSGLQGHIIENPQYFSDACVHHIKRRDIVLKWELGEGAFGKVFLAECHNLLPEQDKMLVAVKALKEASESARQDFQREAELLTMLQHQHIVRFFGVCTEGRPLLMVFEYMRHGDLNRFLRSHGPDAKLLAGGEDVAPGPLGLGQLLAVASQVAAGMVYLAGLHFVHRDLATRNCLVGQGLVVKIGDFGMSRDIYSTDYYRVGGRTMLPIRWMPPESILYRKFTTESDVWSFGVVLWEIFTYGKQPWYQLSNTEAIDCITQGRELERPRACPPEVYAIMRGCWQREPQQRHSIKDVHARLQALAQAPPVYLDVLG
row,SMILES,IC50
1,"CC(C)Oc1nc(N2C[C@H]3CCN(C(=O)N4CCN(C)CC4)[C@H]3C2)ccc1NC(=O)c1coc2c1C(=O)NC(C)(C)C2 [Example 132, N-{2-isopropoxy-6-[(3aR,6aR)-1-[(4-methylpiperazin-1-yl)carbonyl]hexahydropyrrolo[3,4-b]pyrrol-5(1H)-yl]pyridin-3-yl}-6,6-dimethyl-4-oxo-4,5,6,7-tetrahydrofuro[3,2-c]pyridine-3-carboxamide]",6.9 nM
2,"CC(=O)N1CCN(c2ccc(NC(=O)c3coc4c3C(=O)NC(C)(C)C4)c(OC(C)C)n2)C[C@H]1CO [Example 133, N-{6-[(3S)-4-acetyl-3-(hydroxymethyl)piperazin-1-yl]-2-isopropoxypyridin-3-yl}-6,6-dimethyl-4-oxo-4,5,6,7-tetrahydrofuro[3,2-c]pyridine-3-carboxamide]",3.3 nM
3,"CC(=O)N1CCN(c2ccc(NC(=O)c3coc4c3C(=O)NC(C)(C)C4)c(OC(C)C)n2)[C@H](CO)C1 [Example 134, N-{6-[(2S)-4-acetyl-2-(hydroxymethyl)piperazin-1-yl]-2-isopropoxypyridin-3-yl}-6,6-dimethyl-4-oxo-4,5,6,7-tetrahydrofuro[3,2-c]pyridine-3-carboxamide]",3.9 nM
4,"CC(C)Oc1nc(N2CCN(C(=O)N3CCOCC3)C[C@H]2CO)ccc1NC(=O)c1coc2c1C(=O)NC(C)(C)C2 [Example 135, N-{6-[(2S)-2-(hydroxymethyl)-4-(morpholin-4-ylcarbonyl)piperazin-1-yl]-2-isopropoxypyridin-3-yl}-6,6-dimethyl-4-oxo-4,5,6,7-tetrahydrofuro[3,2-c]pyridine-3-carboxamide]",2.3 nM
5,"CC(C)Oc1nc(N2CC[C@H](N(C)C)C2)ccc1NC(=O)c1coc2c1C(=O)NC(C)(C)C2 [Example 136, N-{6-[(3S)-3-(dimethylamino)pyrrolidin-1-yl]-2-isopropoxypyridin-3-yl}-6,6-dimethyl-4-oxo-4,5,6,7-tetrahydrofuro[3,2-c]pyridine-3-carboxamide]",10.2 nM
6,"CC(C)Oc1nc(N2CCC[C@H](CO)C2)ccc1NC(=O)c1coc2c1C(=O)NC(C)(C)C2 [Example 137, N-{6-[(3S)-3-(hydroxymethyl)piperidin-1-yl]-2-isopropoxypyridin-3-yl}-6,6-dimethyl-4-oxo-4,5,6,7-tetrahydrofuro[3,2-c]pyridine-3-carboxamide]",13.3 nM
7,"CC(=O)N1CCN(c2ccc(NC(=O)c3coc4c3C(=O)NC(C)(C)C4)c(OC(C)C)n2)C[C@@H]1CO [Example 138, N-{6-[(3R)-4-acetyl-3-(hydroxymethyl)piperazin-1-yl]-2-isopropoxypyridin-3-yl}-6,6-dimethyl-4-oxo-4,5,6,7-tetrahydrofuro[3,2-c]pyridine-3-carboxamide]",6.3 nM
8,"CC(=O)N1CCN(c2ccc(NC(=O)c3coc4c3C(=O)NC(C)(C)C4)c(OC(C)C)n2)[C@@H](CO)C1 [Example 139, N-{6-[(2R)-4-acetyl-2-(hydroxymethyl)piperazin-1-yl]-2-isopropoxypyridin-3-yl}-6,6-dimethyl-4-oxo-4,5,6,7-tetrahydrofuro[3,2-c]pyridine-3-carboxamide]",2.4 nM
9,"CC(C)Oc1nc(N(CCO)CCO)ccc1NC(=O)c1coc2c1C(=O)NC(C)(C)C2 [Example 140, N-{6-[bis(2-hydroxyethyl)amino]-2-isopropoxypyridin-3-yl}-6,6-dimethyl-4-oxo-4,5,6,7-tetrahydrofuro[3,2-c]pyridine-3-carboxamide]",10.5 nM
10,"COCCOc1ccc(NC(=O)c2coc3c2C(=O)NC(C)(C)C3)c(OCCOC)n1 [Example 141, N-[2,6-bis(2-methoxyethoxy)pyridin-3-yl]-6,6-dimethyl-4-oxo-4,5,6,7-tetrahydrofuro[3,2-c]pyridine-3-carboxamide]",60.1 nM
11,"COC[C@@H]1CN(c2ccc(NC(=O)c3coc4c3C(=O)NC(C)(C)C4)c(OCC(C)(C)O)n2)CCN1C(C)=O [Example 142, N-{6-[(3S)-4-acetyl-3-(methoxymethyl)piperazin-1-yl]-2-(2-hydroxy-2-methylpropoxy)pyridin-3-yl}-6,6-dimethyl-4-oxo-4,5,6,7-tetrahydrofuro[3,2-c]pyridine-3-carboxamide]",1.8 nM

# — patent US9777020B2, “Furo-3-carboxamide derivatives and methods of use” (AbbVie Inc., priority 2014, dated 2017)
